Assay results published in PMC11984924, “Dipeptidic Phosphonates: Potent Inhibitors of Pseudomonas aeruginosa Elastase B Showing Efficacy in a Murine Keratitis Model” (Advanced Science, 2025).
In brackets after ≈: the same amount, converted by molar mass.

Columns and labels:
[1] = system: P. aeruginosa strain PA54 keratitis; assay: Murine Pseudomonas keratitis model; format: in vivo, mouse
Method: Based on our previous findings on target engagement in a murine pneumonia model in combination with a standard‐of‐care antibiotic,^[ [30] ^] we applied the dipeptide (R)‐30 alone and in combination with the commonly used antibiotic meropenem.^[ [9] ^] The keratitis model was carried out using aged female C57BL/6 mice, as previously published.^[ [37] ^] For infection, 5*10^7 colony forming units (CFUs) of PA54 were topically administered on denuded, mechanically harmed corneas. Treatments with meropenem, (R)‐30, or meropenem in combination with (R)‐30 were performed every 8 h for 72 h (first treatment at 6 h post infection). Each of the in total nine 5 µL‐doses contained 1 mg/mL (R)‐30 and/or 0.5 mg mL^−1 meropenem. Sham‐treated mice received 5 µL‐doses of the vehicle (0.9% saline and 1% DMSO) at the time points indicated above, and uninfected eyes received no treatment. […]
(§1) Animals: The animal experiments were approved by Saarland University’s Animal Welfare Committee (Application number: 17/2021) and conducted in accordance with German and European recommendations and guidelines for the ethical use of animals. The laboratory animals were all C57BL/6N female eight to eleven months old mice. Keeping in specific pathogen-free conditions was provided. Unlimited access to water and show was secured.
(§2) Temperature was closely maintained around 22 °C and relative air humidity around 50%. Light and darkness alternated at twelve-hour intervals. All laboratory animals were purchased from Charles River GmbH, Sulzfeld, Germany.
P. aeruginosa: The P. aeruginosa strain PA54 was employed to induce an experimental bacterial keratitis in the aforementioned C57BL/6N mice. The strain PA54 was isolated from human infections and collected at Saarland University Medical Center’s Institute for Medical Microbiology and Hygienics (IMMH) in 2009. According to Magiorakos et al., PA54 can be classified as multidrug-resistant due to its lacking sensibility to the anti-pseudomonal cephalosporins ceftazidime and cefepime, the anti-pseudomonal fluoroquinolones ciprofloxacin and levofloxacin, the […] fosfomycin, and the aminoglycoside gentamicin.[18] The minimum inhibitory concentration (MIC) of the reserve antibiotic meropenem (meropenem trihydrate, Sigma) was 1 µg/mL (sensitivity limit = 2 µg/mL). The exoU- and exoT-positivity of the PA54 strain, foregrounds its keratitogenic potential.
Inoculum: The P. aeruginosa strain PA54 is routinely grown overnight on blood agar (TrypticaseTM Soy Agar, 5% sheep blood, BD, Heidelberg, Germany) at 37 °C. To obtain a stationary phase cell inoculum, a freshly grown colony was inoculated in tryptic soy broth (TSB; BD, Heidelberg, Germany) and cultured at 37 °C and 150 rounds per minute (rpm) for 16 h.
Then, 2 mL were centrifuged at 13,200 rpm at rt for 2 min, whereupon cells were resuspended in spent medium to an OD600 of 10 (∼1×1010 CFU/mL). Short storage on ice followed, before the infection procedure started.
Infection Procedure: Anesthesia and infection were performed as previously published. Briefly, fentanyl (Hameln Pharma Plus GmbH, Hameln, Germany), midazolam hydrochloride (Midazolam-Hameln, 5 mg/mL, Hameln pharma GmbH, Germany) and medetomidine hydrochloride (Domitor, Orion Corporation, Espoo, Finland) were dissolved in 0.9% NaCl (NaCl 0.9%, Ecotainer 500 mL, B. Braun, Melsungen, Germany), dosed at 0.05 mg/kg, 5 mg/kg and 0.5 mg/kg body weight, respectively, and applied by intraperitoneal injection. Analgesia (Carprofen, 5 mg/kg body weight, Zoetis Deutschland GmbH, Berlin, Germany) was ap plied subcutaneously. Lacrimation was stopped with 10 µL of a 0.6% acetylcysteine solution (Pharmacy of Saarland University Hospitals, Homburg, Germany). Local analgesia (0.5% proxymetacaine hydrochloride, Proparakain -POS Augentropfen, Ursapharm Arzneimitt el GmbH, Saarbrücken, Germany) was eye-dropped and removed after 60 seconds. The blunt […]

[2] = system: P. aeruginosa strain PA54; assay: MIC against strain PA54; format: cell-based; settings: Pseudomonas aeruginosa, read-out: minimum inhibitory concentration (MIC)
Method: The analysis of fold change and copy numbers was conducted through Microsoft Excel, and the data were graphically represented using GraphPad Prism 9.
Table S17: Primers and probes applied in this study (designs were carried out using Geneious Prime bioinformatics […]
Gene Forward primer Reverse Primer Probe Description […]
lasB GAACA CAG CCAA aeruginosa […]
GACTTC CCTG CCGA sigma factor RpoS […]
rho AAC GTTG TCATCGG termination factor
as §1, §2
P. aeruginosa: The P. aeruginosa strain PA54 was employed to induce an experimental bacterial keratitis in the aforementioned C57BL/6N mice. The strain PA54 was isolated from human infections and collected at Saarland University Medical Center’s Institute for Medical Microbiology and Hygienics (IMMH) in 2009. […]

HEK293 cells = assay: Cytotoxicity HEK293; format: cell-based; settings: Homo sapiens, HEK293, read-out: HEK293 % inhibition at 100 µM (metabolic activity), 48 hours
Method: (§3) HepG2 (human hepatocellular carcinoma), HEK293 (human embryonal kidney) and A549
(§4) (human lung carcinoma) cells (2x10^5 cells per well) were seeded in 24-well in flat-bottomed
(§5) plates. Culturing of cells, incubations and OD measurements were performed as described
(§6) previously with small modifications.[14] Twenty-four hours after seeding the cells the incubation
(§7) was started by the addition of compounds in a final DMSO concentration of 1%. The living cell
(§8) mass was determined after 48 hours in a PHERAstar microplate reader (BMG labtech,
(§9) Ortenberg, Germany). Two independent measurements were performed for each compound.

TACE (ADAM17) = target: T1, TACE (ADAM17) (Homo sapiens, UniProt P78536); assay: TACE (ADAM17) inhibition (off-target); format: biochemical; settings: read-out: TACE (ADAM17) % inhibition at 100 µM
T1 construct: purchased Sigma-Aldrich (Saint Louis, MO)
T1 sequence (P78536 215-824): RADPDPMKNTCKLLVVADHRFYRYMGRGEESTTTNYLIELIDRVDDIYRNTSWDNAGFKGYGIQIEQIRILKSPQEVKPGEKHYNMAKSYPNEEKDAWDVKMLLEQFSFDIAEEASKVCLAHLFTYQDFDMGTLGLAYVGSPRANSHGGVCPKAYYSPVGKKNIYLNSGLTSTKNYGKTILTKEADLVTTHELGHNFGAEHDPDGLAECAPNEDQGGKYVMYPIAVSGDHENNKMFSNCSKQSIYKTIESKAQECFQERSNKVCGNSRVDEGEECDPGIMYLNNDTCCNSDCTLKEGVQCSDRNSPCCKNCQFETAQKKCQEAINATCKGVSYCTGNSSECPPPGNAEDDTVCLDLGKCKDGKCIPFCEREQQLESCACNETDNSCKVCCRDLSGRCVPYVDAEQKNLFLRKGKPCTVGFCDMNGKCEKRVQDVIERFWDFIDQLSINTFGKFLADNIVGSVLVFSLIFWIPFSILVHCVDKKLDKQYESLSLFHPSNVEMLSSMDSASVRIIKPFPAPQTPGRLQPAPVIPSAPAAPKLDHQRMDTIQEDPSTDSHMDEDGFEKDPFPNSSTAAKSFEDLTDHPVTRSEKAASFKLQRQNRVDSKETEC
Method: (§10) 3.1 In vitro inhibition assays
(§11) LasB was expressed and purified as described previously.[3] In vitro inhibition assays (LasB, MMPs, TACE). All in vitro inhibition assays were performed as described previously.[10] TACE inhibitor screening kits were purchased from Sigma-Aldrich (Saint Louis, MO). MMPs along with the SensoLyte 520 Generic MMP Activity Kit Fluorimetric were purchased from AnaSpec (Fremont, CA, USA). The assays were performed according to the guidelines of the respective manufacturer. Fluorescence signals were measured using a CLARIOstar plate reader (BMG Labtech, Ortenberg, Germany). […]
(§12) 3.8 Test against zinc metalloproteases MMP1–3 and TACE (ADAM17), and testing of
(§13) We selected a panel of human off -targets, including three human matrix metalloproteases (MMP-1, -2 and -3) and TACE (ADAM-17). These assays were performed as described previously.[3] The TACE inhibitor screening kit was purchased from Sigma -Aldrich (Saint Louis, MO). MMPs along with the SensoLyte 520 Generic MMP Activity Kit Fluorimetric were purchased from AnaSpec (Fremont, CA, USA). The assays were performed according to the guidelines of the respective manufacturer. Fluorescence signals were measured using a CLARIOstar plate reader (BMG Labtech, Ortenberg, Germany). […]
(§14) Table S6: Percent (%) inhibition of three MMPs (1 –3) and TACE (ADAM17) in presence of selected LasB inhibitors at 100 µM. Results are means and SD of at least two independent experiments. […]
(§15) Compound [% inhibition at [% inhibition at [% inhibition at [% inhibition at 100

MMP-1 = target: T2, MMP-1 (Homo sapiens, UniProt P03956); assay: MMP-1 inhibition (off-target); format: biochemical; settings: read-out: MMP-1 % inhibition at 100 µM
T2 construct: purchased AnaSpec (Fremont, CA, USA)
T2 sequence (P03956 100-469): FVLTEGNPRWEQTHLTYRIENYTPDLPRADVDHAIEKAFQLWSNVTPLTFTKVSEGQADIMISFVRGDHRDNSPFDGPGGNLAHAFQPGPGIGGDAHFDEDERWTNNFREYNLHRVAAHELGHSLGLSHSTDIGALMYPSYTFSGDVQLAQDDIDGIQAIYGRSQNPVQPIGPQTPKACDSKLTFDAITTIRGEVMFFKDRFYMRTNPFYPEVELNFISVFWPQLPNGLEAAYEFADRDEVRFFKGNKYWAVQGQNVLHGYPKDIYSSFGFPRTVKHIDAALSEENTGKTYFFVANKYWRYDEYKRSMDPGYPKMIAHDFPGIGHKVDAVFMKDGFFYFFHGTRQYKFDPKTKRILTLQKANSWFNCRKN
Method: as §10, §11, §12, §13, §14, §15

MMP-2 = target: T3, MMP-2 (Homo sapiens, UniProt P08253); assay: MMP-2 inhibition (off-target); format: biochemical; settings: read-out: MMP-2 % inhibition at 100 µM
T3 construct: purchased AnaSpec (Fremont, CA, USA)
T3 sequence (P08253 110-660): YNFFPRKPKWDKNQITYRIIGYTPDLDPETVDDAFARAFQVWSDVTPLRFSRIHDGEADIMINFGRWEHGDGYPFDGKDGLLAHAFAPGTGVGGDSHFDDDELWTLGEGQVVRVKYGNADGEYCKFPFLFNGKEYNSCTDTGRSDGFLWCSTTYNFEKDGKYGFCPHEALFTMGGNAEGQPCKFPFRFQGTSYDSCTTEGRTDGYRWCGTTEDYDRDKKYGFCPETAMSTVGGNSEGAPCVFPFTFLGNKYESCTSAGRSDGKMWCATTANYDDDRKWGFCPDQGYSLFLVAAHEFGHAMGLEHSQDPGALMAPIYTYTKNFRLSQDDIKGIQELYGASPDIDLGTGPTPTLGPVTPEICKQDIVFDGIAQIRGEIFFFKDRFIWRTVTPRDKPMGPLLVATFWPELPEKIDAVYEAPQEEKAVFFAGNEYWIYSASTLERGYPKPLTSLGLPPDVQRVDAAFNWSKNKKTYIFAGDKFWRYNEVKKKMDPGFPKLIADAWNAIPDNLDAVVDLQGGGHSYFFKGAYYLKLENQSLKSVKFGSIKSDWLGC
Method: 3.1 In vitro inhibition assays […]
as §11, with “MMPs,” for “LasB was expressed and purified as described previously.[3] In vitro inhibition assays (LasB, MMPs,”
as §12, §13, §14, §15

MMP-3 = target: T4, MMP-3 (Homo sapiens, UniProt P08254); assay: MMP-3 inhibition (off-target); format: biochemical; settings: read-out: MMP-3 % inhibition at 100 µM
T4 construct: purchased AnaSpec (Fremont, CA, USA)
T4 sequence (P08254 100-477): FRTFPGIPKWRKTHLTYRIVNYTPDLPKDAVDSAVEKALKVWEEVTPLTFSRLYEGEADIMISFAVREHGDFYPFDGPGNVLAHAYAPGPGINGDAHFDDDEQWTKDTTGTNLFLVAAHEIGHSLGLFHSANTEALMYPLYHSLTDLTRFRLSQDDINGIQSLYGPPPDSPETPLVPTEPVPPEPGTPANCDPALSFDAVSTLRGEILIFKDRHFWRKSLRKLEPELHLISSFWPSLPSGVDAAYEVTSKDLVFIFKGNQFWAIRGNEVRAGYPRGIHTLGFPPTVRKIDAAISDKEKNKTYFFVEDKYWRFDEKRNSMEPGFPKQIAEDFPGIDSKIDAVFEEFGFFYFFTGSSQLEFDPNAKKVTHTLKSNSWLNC
Method: as §10, §11, §12, §13, §14, §15

[3] = system: Pseudomonas aeruginosa strain PA14; assay: Antibacterial effect on P. aeruginosa PA14 growth; format: cell-based; settings: PA14, read-out: P. aeruginosa PA14 % inhibition of growth at 100 µM, 18 h, 37 °C
Method: Table S14: Food consumption after treatment with (R)-30.
Table S15: Body and organ weights (gram) after treatment with (R)-30.
3.12 Antibacterial effects
As start OD600 of Pseudomonas aeruginosa strain PA14 we used 0.03 in a total volume of 200
µL in lysogeny broth containing the compounds predissolved in DMSO (max. 1%). Final
compound concentrations prepared from serial dilutions ranged from 3.125 to 100 µM (double
values for each concentration). The ODs were determined after addition of the compounds and
again after incubation for 18 h at 37 °C and 200 rpm in 96 well plates (Sarstedt, Nümbrecht,
Germany) using a FLUOStar Omega (BMG labtech, Ortenberg, Germany). Given percent (%)
inhibition values are means of at least two independent determinations. To obtain the values
for a given compound, their ODs were compared to those of DMSO controls. Concerning the […]

A549 cells = assay: Cytotoxicity A549; format: cell-based; settings: Homo sapiens, A549, read-out: A549 % inhibition at 100 µM (metabolic activity), 48 hours
Method: as §3, §4, §5, §6, §7, §8, §9

LasB = target: T5, LasB (Pseudomonas aeruginosa, UniProt Q02RJ6); assay: In vitro LasB inhibition assay; format: biochemical; settings: IC50 LasB inhibition
T5 construct: made in house
T5 sequence (Q02RJ6 198-498): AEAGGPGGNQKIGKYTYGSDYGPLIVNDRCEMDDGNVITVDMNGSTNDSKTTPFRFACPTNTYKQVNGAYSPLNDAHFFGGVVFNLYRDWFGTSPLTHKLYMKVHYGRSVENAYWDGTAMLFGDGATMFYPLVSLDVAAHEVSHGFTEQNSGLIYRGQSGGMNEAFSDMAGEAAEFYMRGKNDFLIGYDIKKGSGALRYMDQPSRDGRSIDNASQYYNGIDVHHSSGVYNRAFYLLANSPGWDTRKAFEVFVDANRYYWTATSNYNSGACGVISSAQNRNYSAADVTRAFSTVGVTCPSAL
Method: as §10
LasB was expressed and purified as described previously.[3] In vitro inhibition assays (LasB,
MMPs, TACE). All in vitro inhibition assays were performed as described previously.[10] […]
Fluorescence signals were measured using a CLARIOstar plate reader (BMG
Labtech, Ortenberg, Germany). […]

HepG2 cells = assay: Cytotoxicity HepG2; format: cell-based; settings: Homo sapiens, HepG2, read-out: HepG2 % inhibition at 100 µM (metabolic activity), 48 hours
Method: as §3, §4, §5, §6, §7, §8, §9

Row | SMILES | IL‐1β levels in eye homogenate ([1]; day 3 post infection, compared to sham treatment / uninfected eyes) | KC levels in eye homogenate ([1]; day 3 post infection, compared to uninfected eyes) | reduction of bacterial load in the eye (median) ([1]; day 3 post infection, whole-eye homogenates) | median clinical keratitis score ([1]; day three post infection, topical every 8 h for 72 h, 1 mg/mL (R)-30 and/or 0.5 mg/mL meropenem) | MIC [2] | inhibition at 100 µM (HEK293 cells) | inhibition at 100 µM (TACE (ADAM17)) | inhibition at 100 µM (MMP-1) | inhibition at 100 µM (MMP-2) | inhibition at 100 µM (MMP-3) | inhibition at 100 µM [3] | inhibition at 100 µM (A549 cells) | IC50 (LasB) | inhibition at 100 µM (HepG2 cells)
1 | C[C@@H](O)[C@H]1C(=O)N2C(C(=O)O)=C(S[C@@H]3CN[C@H](C(=O)N(C)C)C3)[C@H](C)[C@H]12 [meropenem, reference compound] | almost on the level of this cytokine seen in uninfected eyes | significantly higher amounts of this chemokine | 64 fold | 3 | 1 µg/mL (≈ 2.61 µM) | – | – | – | – | – | – | – | – | –
2 | CC(C)CC(C(=O)N[C@H](C(=O)Nc1ccc(C(=O)C(F)(F)F)cc1)C(C)C)P(=O)(O)O (some centres unmarked) [compound 31] | – | – | – | – | – | 19 ± 5% | < 10% | < 10% | < 10% | < 10% | < 10% | < 10% | 21.7 ± 0.6 nM | < 10%
